Experiments:
[1] = tested on: p-CHK1 (Ser345); experiment: AlphaLISA SureFire Ultra p-CHK1 (Ser345) cellular assay in HT29 cells; format: cell-based; conditions: Homo sapiens, HT-29, 16 h at 37° C.
Description: Example B: AlphaLisa Cellular Assay
Compound activity in cells was measured using an AlphaLISA® SureFire® Ultra™ p-CHK1 (Ser345) assay (Perkin Elmer, catalog no. ALSU-PCHK1-A10K). HT29 cells were cultured in McCoy 5A medium with 10% FBS and 1% penicillin-streptomycin and seeded to 96-well plates (Corning, catalog no. 3599). Compounds were serially diluted in DMSO over a 10-point dose range with 3-fold dilution and to each well containing cells was added compound solution. Plates were centrifuged at 1000 rpm for 30 seconds. Plates were incubated at 37° C. for 16 h. Supernatant was removed by flicking the plate against a paper towel. Wells were washed once with PBS solution. To each well was added freshly prepared lysis buffer and plates were agitated on a plate shaker at 400 rpm for 30 min. The 96-well cell plates were centrifuged at 1500 rpm for 1 minute. From each well was transferred 10 μL of the lysates to a 384-well Optiplate™ (Perkin Elmer, catalog no. 6007290). To each well was added Acceptor Mix (5 μL) and the plates were sealed and wrapped in foil. Plates were agitated on a plate shaker for 2 minutes, then incubated at room temperature for 1 h. To each well was added Donor Mix (5 μL) and the plates were sealed and wrapped in foil. Plates were agitated on a plate shaker for 2 minutes, then incubated at room temperature for 1 h. AlphaLisa signal was read on an EnVision multimode plate reader (Perkin Elmer). Data were fit to dose-response curves using XLfit (IDBS, Surrey, UK) or Prism (GraphPad Software, La Jolla, Calif., US) to calculate IC50 values for each compound tested.

[2] = target: T1, Full-length human Chk1 protein (Homo sapiens, UniProt O14757); experiment: Kinase HTRF biochemical assay (HTRF KinEASE), Chk1 enzyme activity; conditions: full-length human Chk1, ATP 1 mM, 60 minutes at room temperature
T1 construct: purchased Carna Biosciences, Inc. 02-117
T1 sequence (O14757 1-476): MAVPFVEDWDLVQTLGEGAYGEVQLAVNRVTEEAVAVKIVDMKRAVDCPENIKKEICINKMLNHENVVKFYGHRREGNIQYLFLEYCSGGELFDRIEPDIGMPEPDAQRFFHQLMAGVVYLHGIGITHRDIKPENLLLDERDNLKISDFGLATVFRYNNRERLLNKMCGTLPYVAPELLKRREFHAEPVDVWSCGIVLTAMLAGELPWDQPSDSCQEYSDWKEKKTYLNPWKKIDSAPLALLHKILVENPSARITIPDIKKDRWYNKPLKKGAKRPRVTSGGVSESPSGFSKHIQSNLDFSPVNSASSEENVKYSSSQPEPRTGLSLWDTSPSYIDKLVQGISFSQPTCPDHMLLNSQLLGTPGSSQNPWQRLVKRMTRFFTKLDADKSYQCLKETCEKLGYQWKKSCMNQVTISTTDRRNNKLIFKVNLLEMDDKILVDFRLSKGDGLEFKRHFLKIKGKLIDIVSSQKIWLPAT
Procedure, shortened: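 Full-length human Chk1 (0.012 ng/μL) in buffer with 5 mM MgCl2 and 1 mM DTT, preincubated with compound 10 min at room temperature; reaction with 120 nM biotinylated STK substrate 1 and 1 mM ATP for 60 min at room temperature. HTRF detection via cryptate antibody/streptavidin-XL665; IC50 from 10-point duplicate curves.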

SMILES	IC50 [1] [nM]	IC50 [2] [nM]
COc1c(F)ccc(O[C@H]2C[C@H](N)C2)c1-c1cc(Nc2cnc(C#N)cn2)n[nH]1 [Example 2-3, 5-((5-(6-((1r,3r)-3-aminocyclobutoxy)-3-fluoro-2-methoxyphenyl)-1H-pyrazol-3-yl)amino)pyrazine-2-carbonitrile]	100 to 500	10 to 100
CCOc1cccc(O[C@H]2C[C@H](N)C2)c1-c1cc(Nc2cnc(C#N)cn2)n[nH]1 [Example 1-12, 5-((5-(2-((1r,3r)-3-aminocyclobutoxy)-6-ethoxyphenyl)-1H-pyrazol-3-yl)amino)pyrazine-2-carbonitrile]	100 to 500	≤ 10
COc1cc(F)cc(O[C@@H]2CC[C@H](N)C2)c1-c1cc(Nc2cnc(C#N)cn2)n[nH]1 [Example 1-28, 5-((5-(2-(((1R,3S)-3-aminocyclopentyl)oxy)-4-fluoro-6-methoxyphenyl)-1H-pyrazol-3-yl)amino)pyrazine-2-carbonitrile]	≤ 50	≤ 10
CN[C@H]1C[C@H](Oc2cccc(F)c2-c2cc(Nc3cnc(C#N)cn3)n[nH]2)C1 [Example 2-5, 5-((5-(2-fluoro-6-((1r,3r)-3-(methylamino)cyclobutoxy)phenyl)-1H-pyrazol-3-yl)amino)pyrazine-2-carbonitrile]	100 to 500	10 to 100
COc1cccc(O[C@@H]2CC[C@H]2N)c1-c1cc(Nc2cnc(C#N)cn2)n[nH]1 [Example 3-2, 5-((5-(2-((1R,2R)-2-aminocyclobutoxy)-6-methoxyphenyl)-1H-pyrazol-3-yl)amino)pyrazine-2-carbonitrile]	≤ 50	≤ 10
N#Cc1cnc(Nc2cc(-c3ccccc3O[C@@H]3CC[C@@H](N)C3)[nH]n2)cn1 [Example 1-53, 5-((5-(2-(((1R,3R)-3-aminocyclopentyl)oxy)phenyl)-1H-pyrazol-3-yl)amino)pyrazine-2-carbonitrile]	50 to 100	≤ 10
COc1cccc(O[C@@H]2CC[C@H](N(C)C)C2)c1-c1cc(Nc2cnc(C#N)cn2)n[nH]1 [Example 1-49, 5-((5-(2-(((1R,3S)-3-(dimethylamino)cyclopentyl)oxy)-6-methoxyphenyl)-1H-pyrazol-3-yl)amino)pyrazine-2-carbonitrile]	≤ 50	≤ 10
N#Cc1cnc(Nc2cc(-c3ccccc3O[C@H]3CC[C@H](N)CC3)[nH]n2)cn1 [Example 1-51, 5-((5-(2-(((1r,4r)-4-aminocyclohexyl)oxy)phenyl)-1H-pyrazol-3-yl)amino)pyrazine-2-carbonitrile]	> 1000	10 to 100
N#Cc1cnc(Nc2cc(-c3c(F)cccc3O[C@@H]3CC[C@@H](N)C3)[nH]n2)cn1 [Example 1-44, 5-((5-(2-(((1R,3R)-3-aminocyclopentyl)oxy)-6-fluorophenyl)-1H-pyrazol-3-yl)amino)pyrazine-2-carbonitrile]	≤ 50	≤ 10
COc1ccc(F)c(O[C@@H]2CC[C@H](N)C2)c1-c1cc(Nc2cnc(C#N)cn2)n[nH]1 [Example 1-27, 5-((5-(2-(((1R,3S)-3-aminocyclopentyl)oxy)-3-fluoro-6-methoxyphenyl)-1H-pyrazol-3-yl)amino)pyrazine-2-carbonitrile]	100 to 500	10 to 100
N#Cc1cnc(Nc2cc(-c3c(F)cccc3O[C@H]3C[C@H](N)C3)[nH]n2)cn1 [Example 1-13, 5-((5-(2-((1r,3r)-3-aminocyclobutoxy)-6-fluorophenyl)-1H-pyrazol-3-yl)amino)pyrazine-2-carbonitrile]	100 to 500	10 to 100
COc1cccc(O[C@@H]2CC[C@H](N)C2)c1-c1cc(Nc2cnc(C#N)c(C)n2)n[nH]1 [Example 1-39, 5-((5-(2-(((1R,3S)-3-aminocyclopentyl)oxy)-6-methoxyphenyl)-1H-pyrazol-3-yl)amino)-3-methylpyrazine-2-carbonitrile]	500 to 1000	10 to 100
Cc1ccc(O[C@@H]2CC[C@@H](N)C2)c(-c2cc(Nc3cnc(C#N)cn3)n[nH]2)n1 [Example 1-60, 5-((5-(3-(((1R,3R)-3-aminocyclopentyl)oxy)-6-methylpyridin-2-yl)-1H-pyrazol-3-yl)amino)pyrazine-2-carbonitrile]	≤ 50	≤ 10

More lines, now with the values ahead:

IC50 [1] [nM]	IC50 [2] [nM]	SMILES
≤ 50	≤ 10	N#Cc1cnc(Nc2cc(-c3c(F)cccc3O[C@@H]3CCC[C@H]3N)[nH]n2)cn1 [Example 3-40, 5-((5-(2-(((1R,2R)-2-aminocyclopentyl)oxy)-6-fluorophenyl)-1H-pyrazol-3-yl)amino)pyrazine-2-carbonitrile]
100 to 500	10 to 100	CN[C@@H]1CC[C@@H](Oc2ccc(Cl)c(F)c2-c2cc(Nc3cnc(C#N)cn3)n[nH]2)C1 [Example 3-22, 5-((5-(3-chloro-2-fluoro-6-(((1R,3R)-3-(methylamino)cyclopentyl)oxy)phenyl)-1H-pyrazol-3-yl)amino)pyrazine-2-carbonitrile]
> 1000	10 to 100	N#Cc1cnc(Nc2cc(-c3c(O[C@@H]4CC[C@H](N)C4)ccc(Cl)c3F)[nH]n2)cn1 [Example 3-19, 5-((5-(6-(((1R,3S)-3-aminocyclopentyl)oxy)-3-chloro-2-fluorophenyl)-1H-pyrazol-3-yl)amino)pyrazine-2-carbonitrile]
> 1000	500 to 1000	N#Cc1cnc(Nc2cc(-c3cccc(Cl)c3O[C@@H]3CC[C@H](N)C3)[nH]n2)cn1 [Example 3-14, 5-((5-(2-(((1R,3S)-3-aminocyclopentyl)oxy)-3-chlorophenyl)-1H-pyrazol-3-yl)amino)pyrazine-2-carbonitrile]
500 to 1000	10 to 100	COc1cccc(O[C@H]2CC[C@@H](N)C2)c1-c1cc(Nc2cnc(C#N)cn2)n[nH]1 [Example 2-2, 5-((5-(2-(((1S,3R)-3-aminocyclopentyl)oxy)-6-methoxyphenyl)-1H-pyrazol-3-yl)amino)pyrazine-2-carbonitrile]
≤ 50	≤ 10	CN[C@@H]1CC[C@@H](Oc2ccc(C)c(F)c2-c2cc(Nc3cnc(C#N)cn3)n[nH]2)C1 [Example 3-20, 5-((5-(2-fluoro-3-methyl-6-(((1R,3R)-3-(methylamino)cyclopentyl)oxy)phenyl)-1H-pyrazol-3-yl)amino)pyrazine-2-carbonitrile]
≤ 50	≤ 10	Cc1cc(F)c(-c2cc(Nc3cnc(C#N)cn3)n[nH]2)c(O[C@@H]2CC[C@@H](N)C2)c1 [Example 5-1, 5-((5-(2-(((1R,3R)-3-aminocyclopentyl)oxy)-6-fluoro-4-methylphenyl)-1H-pyrazol-3-yl)amino)pyrazine-2-carbonitrile]
≤ 50	≤ 10	N#Cc1cnc(Nc2cc(-c3nc(C4CC4)ccc3O[C@@H]3CC[C@H](N)C3)[nH]n2)cn1 [Example 4-5, 5-((5-(3-(((1R,3S)-3-aminocyclopentyl)oxy)-6-cyclopropylpyridin-2-yl)-1H-pyrazol-3-yl)amino)pyrazine-2-carbonitrile]
500 to 1000	10 to 100	Cc1ccc(O[C@H]2CC[C@H](N)C2)c(-c2cc(Nc3cnc(C#N)cn3)n[nH]2)n1 [Example 3-44, 5-((5-(3-(((1S,3S)-3-aminocyclopentyl)oxy)-6-methylpyridin-2-yl)-1H-pyrazol-3-yl)amino)pyrazine-2-carbonitrile]
> 1000	500 to 1000	N#Cc1cnc(Nc2cc(-c3ccccc3O[C@H]3CC[C@@H](N)C3)[nH]n2)cn1 [Example 2-1, 5-((5-(2-(((1S,3R)-3-aminocyclopentyl)oxy)phenyl)-1H-pyrazol-3-yl)amino)pyrazine-2-carbonitrile]
50 to 100	≤ 10	N#Cc1cnc(Nc2cc(-c3c(F)cccc3O[C@H]3CCCC[C@H](N)C3)[nH]n2)cn1 [Example 3-38, 5-((5-(2-(((1S,3S)-3-aminocycloheptyl)oxy)-6-fluorophenyl)-1H-pyrazol-3-yl)amino)pyrazine-2-carbonitrile]

Reference: patent US11707462B2, “Checkpoint kinase 1 (CHK1) inhibitors and uses thereof” (Boundless Bio, Inc., priority 2021, dated 2023)
